Measured values: patent US12023323B2, “Carbohydrate-binding small molecules with antiviral activity” (priority 2018, dated 2024)
Where two headings read alike, the source gives them in different places.

Legend:
[1] = 1H NMR titration with octyloxy pyranoside α-Glc; assay type: binding; conditions: CD2Cl2, 298 K, 1:1 binding
ZIKV GFP RVPs [2] = experiment: microbe, parasite or virus in culture; conditions: Zika virus, Vero, Vero cells
[3] = NMR dilution experiments for dimerization; assay type: physicochemical; conditions: dilution experiments in CD2Cl2
ZIKV GFP RVPs [4] = system: ZIKV GFP RVPs
[5] = Cellular toxicity, CellTiter-Glo, Vero cells; conditions: African green monkey
[6] = 1H NMR titration with octyloxy pyranoside β-Man; assay type: binding; conditions: NMR titrations in CD2Cl2 at 298 K, 1:1 binding
[7] = 1H NMR titration with octyloxy pyranoside α-Man; assay type: binding; conditions: NMR titrations in CD2Cl2 at 298 K, 1:1 binding
N154Q mutant ZIKV RVPs = assay type: cell-based, Zika virus; conditions: Vero cells
[8] = Table 1, anti-ZIKV assay

Row | Compound | Ka with α-Glc [1] [M⁻¹] | IC50 (ZIKV GFP RVPs [2]; Table 3, ZIKV RVPs, average of at least two independent measurements) [µM] | dimerization in words [3] | IC50 relative to regioisomer (ZIKV GFP RVPs [4]; SCR023 vs SCR022, SCR017 vs SCR001) | therapeutic index (TC50/IC50) (ZIKV GFP RVPs [4]; Table 3, Vero cells) | IC50 (ZIKV GFP RVPs [4]; Table 3, Vero cells, ZIKV RVPs, average of at least two independent measurements) [µM] | anti-ZIKV activity in words (ZIKV GFP RVPs [4]; Vero cells, ZIKV RVPs) | CC50 at 72 h [5] [µM] | Ka (M^−1) with β-Man [6] [M⁻¹] | Ka (M^−1) with α-Man [7] [M⁻¹] | IC50 (ZIKV GFP RVPs [2]; Table 1, compounds 30 min before ZIKV RVPs, GFP+ cells 72 h postinfection) [µM] | inhibition of N154Q mutant RVPs in words (N154Q mutant ZIKV RVPs) | solubility (words printed in the IC50 column) [8] | anti-ZIKV activity in words (ZIKV GFP RVPs [4])
1 | Oc1cccc(CNCc2cc(CNCc3cccc(O)c3)cc(-c3cc(CNCc4cccc(O)c4)cc(CNCc4cccc(O)c4)c3)c2)c1 [SCR023, 3,3′,3″,3′″-((([1,1′-biphenyl]-3,3′,5,5′-tetrayltetrakis(methylene))tetrakis(azanediyl))tetrakis(methylene))tetraphenol] | 310 | < 20 | Dimerization was observed | at least four times higher | 20 | 10.6 ± 5.9 | weaker inhibition | 207 ± 79 | 250 | 150 | – | – | – | –
2 | Cc1ccc(C(=O)Nc2ccc(S(=O)(=O)O)c3cc(S(=O)(=O)O)cc(S(=O)(=O)O)c23)cc1NC(=O)c1cccc(NC(=O)Nc2cccc(C(=O)Nc3cc(C(=O)Nc4ccc(S(=O)(=O)O)c5cc(S(=O)(=O)O)cc(S(=O)(=O)O)c45)ccc3C)c2)c1 [Suramin, reference compound] | – | – | – | – | – | – | dose dependent inhibition of ZIKV infection | > 200 | – | – | 44 ± 4.19 | inhibited | – | –
3 | O=C(NCc1cc(CNC(=O)c2ccco2)cc(-c2cc(CNC(=O)c3ccco3)cc(CNC(=O)c3ccco3)c2)c1)c1ccco1 [SCR007, N,N′,N′″-([1,1′-biphenyl]-3,3′,5,5′-tetrayltetrakis(methylene))tetrakis(furan-2-carboxamide)] | – | – | – | – | – | – | – | – | – | – | – | – | not soluble | not effective
